Results on eleven compounds are retold here after ChEMBL document CHEMBL5303304, “EUbOPEN Chemogenomics Library - IncuCyte” (2023).

What all share (type): toxicity, cell-based
In data set [1] the test system is HEK-293T. The data set can be described thus: Incucyte cell viability with HEK293T. As to conditions: human, 10 µM, compound concentration 10 uM.
Data set [2] concerns Fibroblast. Kind of data set: Incucyte cell viability with human fibroblast. As to conditions: 10 µM, compound concentration 10 uM.
For data set [3], the system named is U2OS. The data set can be described thus: Incucyte cell viability with U2OS. As to conditions: human, 10 µM, compound concentration 10 uM.
Also: unitless GR value; below 1 slowed growth and below 0 cell loss.

With `Nc1c(CC(=O)O)cccc1C(=O)c1ccc(Br)cc1` [BROMFENAC], the “Growth Rate” value is 0.43 in data set [1] (0 h, replicate number 1); -0.53 in data set [1] (0 h, replicate number 2); 0.98 in data set [1] (24 h, replicate number 1); -0.66 in data set [2] (0 h, replicate number 2); 0.27 in data set [3] (0 h, replicate number 1); 0.2 in data set [3] (6 h, replicate number 1). Moreover, the “Growth Rate” value came out at 0.79 in data set [3] (12 h, replicate number 1); 0.95 in data set [3] (12 h, replicate number 2); 0.86 in data set [3] (18 h, replicate number 1); 0.92 in data set [3] (18 h, replicate number 2); 0.74 in data set [3] (24 h, replicate number 1); 0.95 in data set [3] (24 h, replicate number 2).

For the compound `Cn1ncc(-c2nc(N[C@H]3CC[C@H](N)CC3)ncc2Cl)c1CC1CC1` [BTX-A51], the “Growth Rate” value in data set [1] (0 h, replicate number 1) is -0.79; in data set [1] (24 h, replicate number 1), 0.57; in data set [1] (24 h, replicate number 2), 0.67; in data set [2] (0 h, replicate number 1) it was -0.32; in data set [2] (0 h, replicate number 2), -0.85; in data set [3] (18 h, replicate number 2) it was 0.89. Moreover, in data set [3] (24 h, replicate number 2), the “Growth Rate” value turned out to be 0.74.

With `C=C1/C(=C\C=C2/CCC[C@]3(C)[C@@H]([C@H](C)CCCC(C)(C)O)CC[C@@H]23)C[C@@H](O)C[C@@H]1O` [CALCITRIOL], the “Growth Rate” value in data set [1] (0 h, replicate number 2) is -0.91; in data set [1] (6 h, replicate number 1), 0.8; in data set [1] (6 h, replicate number 2), 0.4; in data set [1] (12 h, replicate number 1) it was 0.61; in data set [1] (12 h, replicate number 2), 0.7; in data set [1] (18 h, replicate number 1), 0.44. Further, the “Growth Rate” value in data set [1] (18 h, replicate number 2) is given as 0.67; in data set [1] (24 h, replicate number 1), 0.53; in data set [1] (24 h, replicate number 2), 0.55; in data set [2] (6 h, replicate number 1), 0.62; in data set [2] (6 h, replicate number 2) it was 0.1; in data set [2] (12 h, replicate number 1), 0.49. For the same compound, the “Growth Rate” value is 0.64 in data set [2] (12 h, replicate number 2); 0.64 in data set [2] (18 h, replicate number 1); 0.96 in data set [2] (24 h, replicate number 1); -0.07 in data set [3] (0 h, replicate number 1); 0.74 in data set [3] (0 h, replicate number 2); 0.27 in data set [3] (6 h, replicate number 1). The “Growth Rate” value is recorded as 0.45 in data set [3] (6 h, replicate number 2); -0.16 in data set [3] (12 h, replicate number 1); 0.63 in data set [3] (12 h, replicate number 2); 0.83 in data set [3] (18 h, replicate number 1); 0.67 in data set [3] (18 h, replicate number 2); 0.91 in data set [3] (24 h, replicate number 1). In data set [3] (24 h, replicate number 2), the “Growth Rate” value amounted to 0.67.

As to `Oc1cc2c(cc1O)CN(C(=S)NCCc1ccc(Cl)cc1)CCC2` [CAPSAZEPINE], the “Growth Rate” value in data set [1] (6 h, replicate number 1) is recorded as -0.22; in data set [1] (6 h, replicate number 2), -0.37; in data set [1] (12 h, replicate number 1), 0.04; in data set [1] (12 h, replicate number 2) it was 0.11; in data set [1] (18 h, replicate number 1) it was 0.54; in data set [1] (18 h, replicate number 2), 0.51. Further, the “Growth Rate” value is 0.55 in data set [1] (24 h, replicate number 2); -0.78 in data set [2] (0 h, replicate number 2); -0.98 in data set [2] (6 h, replicate number 2); -0.04 in data set [2] (12 h, replicate number 2); -0.47 in data set [2] (18 h, replicate number 1); 0.44 in data set [2] (18 h, replicate number 2). Moreover, the “Growth Rate” value in data set [2] (24 h, replicate number 2) is given as 0.57; in data set [3] (0 h, replicate number 2), -0.38; in data set [3] (6 h, replicate number 2), 0.57; in data set [3] (12 h, replicate number 1), 0.86; in data set [3] (12 h, replicate number 2) it was 0.84; in data set [3] (18 h, replicate number 1) it was 0.88. For the same compound, the “Growth Rate” value in data set [3] (18 h, replicate number 2) is reported as 0.75; in data set [3] (24 h, replicate number 1) it was 0.77; in data set [3] (24 h, replicate number 2), 0.93.

Take `COC[C@H](O)Cn1c(=O)cnn(-c2ccc(Cl)c(C(=O)NCC3(O)CCCCCC3)c2)c1=O` [CE-224535]: the “Growth Rate” value is listed as 0.38 in data set [1] (0 h, replicate number 2); 0.55 in data set [1] (6 h, replicate number 1); -0.26 in data set [2] (0 h, replicate number 1); -1 in data set [2] (0 h, replicate number 2); -1 in data set [2] (12 h, replicate number 1); -0.48 in data set [2] (18 h, replicate number 1). The “Growth Rate” value in data set [3] (0 h, replicate number 1) is given as -0.6.

As to `Cc1cc(Nc2ncc(Cl)c(Nc3ccccc3S(=O)(=O)C(C)C)n2)c(OC(C)C)cc1C1CCNCC1` [CERITINIB], the “Growth Rate” value is on record as -0.91 in data set [1] (6 h, replicate number 1); -0.87 in data set [1] (6 h, replicate number 2); -0.6 in data set [1] (12 h, replicate number 1); -0.49 in data set [1] (12 h, replicate number 2); -0.4 in data set [1] (18 h, replicate number 1); -0.35 in data set [1] (18 h, replicate number 2). The “Growth Rate” value is recorded as -0.33 in data set [1] (24 h, replicate number 1); -0.26 in data set [1] (24 h, replicate number 2); -0.31 in data set [2] (0 h, replicate number 1); -1 in data set [2] (6 h, replicate number 2); -1 in data set [2] (12 h, replicate number 1); -0.99 in data set [2] (12 h, replicate number 2). Moreover, the “Growth Rate” value in data set [2] (18 h, replicate number 1) is recorded as -0.92; in data set [2] (18 h, replicate number 2) it was -0.93; in data set [2] (24 h, replicate number 1) it was -0.63; in data set [2] (24 h, replicate number 2), -0.84; in data set [3] (0 h, replicate number 1), 0.45; in data set [3] (6 h, replicate number 1), -0.98. In addition, the “Growth Rate” value was -0.96 in data set [3] (6 h, replicate number 2); -0.79 in data set [3] (12 h, replicate number 1); -0.82 in data set [3] (12 h, replicate number 2); -0.64 in data set [3] (18 h, replicate number 1); -0.68 in data set [3] (18 h, replicate number 2); -0.57 in data set [3] (24 h, replicate number 1). The “Growth Rate” value in data set [3] (24 h, replicate number 2) is given as -0.61.

For `CN(C)CCCN1c2ccccc2Sc2ccc(Cl)cc21.Cl` [CHLORPROMAZINE HYDROCHLORIDE], the “Growth Rate” value in data set [1] (0 h, replicate number 2) was -0.89; in data set [1] (6 h, replicate number 1) it was 0.64; in data set [1] (6 h, replicate number 2), 0.48; in data set [1] (12 h, replicate number 1), 0.66; in data set [1] (12 h, replicate number 2) it was 0.52; in data set [1] (18 h, replicate number 1), 0.18. The “Growth Rate” value is given as 0.37 in data set [1] (18 h, replicate number 2); 0.15 in data set [1] (24 h, replicate number 1); 0.19 in data set [1] (24 h, replicate number 2); 0.33 in data set [2] (0 h, replicate number 2); -0.57 in data set [2] (6 h, replicate number 1); -0.38 in data set [2] (12 h, replicate number 1). The “Growth Rate” value in data set [2] (18 h, replicate number 1) is on record as -0.35; in data set [2] (24 h, replicate number 1) it was -0.22; in data set [3] (0 h, replicate number 1), -0.42; in data set [3] (0 h, replicate number 2), -0.21; in data set [3] (6 h, replicate number 2) it was -0.06; in data set [3] (12 h, replicate number 1), 0.42. Also, the “Growth Rate” value in data set [3] (12 h, replicate number 2) is recorded as 0.12; in data set [3] (18 h, replicate number 1), 0.77; in data set [3] (18 h, replicate number 2), 0.33; in data set [3] (24 h, replicate number 1) it was 0.91; in data set [3] (24 h, replicate number 2) it was 0.39.

With `C[C@H](CCC(=O)O)[C@H]1CC[C@H]2[C@@H]3[C@H](O)C[C@@H]4C[C@H](O)CC[C@]4(C)[C@H]3C[C@H](O)[C@]12C` [CHOLIC ACID], the “Growth Rate” value was 0.14 in data set [1] (0 h, replicate number 1); 0.01 in data set [1] (0 h, replicate number 2); 1 in data set [1] (24 h, replicate number 2); 0.6 in data set [2] (0 h, replicate number 1); -0.41 in data set [2] (6 h, replicate number 1); 0.33 in data set [2] (6 h, replicate number 2). Besides, the “Growth Rate” value in data set [2] (12 h, replicate number 1) is recorded as 0.82; in data set [2] (12 h, replicate number 2), 0.56; in data set [2] (18 h, replicate number 1), 0.38; in data set [2] (18 h, replicate number 2) it was 0.65; in data set [2] (24 h, replicate number 1) it was 0.81; in data set [2] (24 h, replicate number 2), 0.97. Also, the “Growth Rate” value turned out to be 0.9 in data set [3] (0 h, replicate number 2); 0.92 in data set [3] (6 h, replicate number 2); 0.92 in data set [3] (12 h, replicate number 2); 0.98 in data set [3] (18 h, replicate number 1); 0.97 in data set [3] (24 h, replicate number 2).

Regarding `Cc1nnc2ccc(-c3cccc(C(F)(F)F)c3)nn12` [CI-218872], the “Growth Rate” value in data set [1] (0 h, replicate number 1) worked out at 0.97; in data set [1] (0 h, replicate number 2) it was 0.45; in data set [1] (12 h, replicate number 2), 0.87; in data set [1] (18 h, replicate number 2) it was 0.95; in data set [1] (24 h, replicate number 2), 0.99; in data set [2] (6 h, replicate number 1), 0.38. Moreover, the “Growth Rate” value in data set [2] (6 h, replicate number 2) is on record as -1; in data set [2] (12 h, replicate number 1), -1; in data set [2] (12 h, replicate number 2) it was 0.98; in data set [3] (6 h, replicate number 1), 0.76; in data set [3] (6 h, replicate number 2), 0.83; in data set [3] (12 h, replicate number 1) it was 0.88. In addition, the “Growth Rate” value in data set [3] (18 h, replicate number 1) turned out to be 0.84; in data set [3] (18 h, replicate number 2), 0.97.

On to `CC1(C)C[C@@H]1C(=O)N/C(=C\CCCCSC[C@H](N)C(=O)O)C(=O)O` [CILASTATIN], for which the “Growth Rate” value in data set [1] (0 h, replicate number 1) is -0.01; in data set [1] (0 h, replicate number 2) it was 0.73; in data set [1] (6 h, replicate number 1) it was 0.74; in data set [1] (6 h, replicate number 2), 0.55; in data set [1] (12 h, replicate number 2) it was 0.9; in data set [2] (0 h, replicate number 2) it was -0.91. Besides, the “Growth Rate” value came out at 0.61 in data set [2] (6 h, replicate number 2); 0.83 in data set [2] (24 h, replicate number 2); 0.88 in data set [3] (0 h, replicate number 2); 0.81 in data set [3] (6 h, replicate number 2); 0.97 in data set [3] (12 h, replicate number 1); 0.74 in data set [3] (12 h, replicate number 2). The “Growth Rate” value is given as 0.9 in data set [3] (18 h, replicate number 1); 0.82 in data set [3] (18 h, replicate number 2); 0.9 in data set [3] (24 h, replicate number 1); 0.79 in data set [3] (24 h, replicate number 2).

`O=C(O)c1ccnc(N2CC(O)(c3ccc(OCc4c(-c5c(Cl)cccc5Cl)noc4C4CC4)cc3Cl)C2)c1` [CILOFEXOR]: the “Growth Rate” value in data set [1] (0 h, replicate number 1) was determined as 0.8; in data set [1] (0 h, replicate number 2), 0.73; in data set [1] (6 h, replicate number 2) it was 0.54; in data set [1] (12 h, replicate number 2), 0.68; in data set [1] (18 h, replicate number 2) it was 0.85; in data set [1] (24 h, replicate number 1), 0.89. Besides, the “Growth Rate” value in data set [1] (24 h, replicate number 2) is 1; in data set [2] (6 h, replicate number 2), -0.03; in data set [2] (18 h, replicate number 1), 0.87; in data set [2] (24 h, replicate number 2), 0.8; in data set [3] (12 h, replicate number 2) it was 1.
